Laboratory results: PMC6804233, “Design and Synthesis of Novel 1,3-Thiazole and 2-Hydrazinyl-1,3-Thiazole Derivatives as Anti-Candida Agents: In Vitro Antifungal Screening, Molecular Docking Study, and Spectroscopic Investigation of their Binding Interaction with Bovine Serum Albumin” (Molecules, 2019)

Biological target: T1, bovine serum albumin (BSA) (Bos taurus, UniProt P02769)
T1 construct: gene ALB; BSA fraction V
Experiment: Intrinsic tryptophan fluorescence quenching titration (Stern–Volmer; double-log plot for Kb), pH […], room temperature
Format: binding
Conditions: read-out: Kb × 10^5 (M^-1) (converted)

T1 sequence (P02769 25-607): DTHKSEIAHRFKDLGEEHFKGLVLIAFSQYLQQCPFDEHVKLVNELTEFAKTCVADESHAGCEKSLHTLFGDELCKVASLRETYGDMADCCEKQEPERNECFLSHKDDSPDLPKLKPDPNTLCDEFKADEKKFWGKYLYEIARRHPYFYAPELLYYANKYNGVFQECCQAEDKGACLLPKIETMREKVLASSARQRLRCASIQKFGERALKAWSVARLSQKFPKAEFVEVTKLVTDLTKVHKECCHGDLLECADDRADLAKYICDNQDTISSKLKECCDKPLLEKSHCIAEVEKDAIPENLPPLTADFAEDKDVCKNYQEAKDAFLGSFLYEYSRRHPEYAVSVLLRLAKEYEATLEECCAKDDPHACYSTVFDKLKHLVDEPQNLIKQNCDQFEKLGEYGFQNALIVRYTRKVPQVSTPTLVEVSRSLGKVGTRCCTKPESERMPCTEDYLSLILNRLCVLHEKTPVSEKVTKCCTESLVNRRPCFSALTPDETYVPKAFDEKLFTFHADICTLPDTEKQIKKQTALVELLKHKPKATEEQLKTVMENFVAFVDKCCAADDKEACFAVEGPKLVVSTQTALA

Kd: 4.42 µM
SMILES: Cc1ccc(-c2csc(NN=C(COc3cc(C)ccc3C(C)C)c3ccccc3)n2)cc1 [7e, 2-(2-(2-(2-isopropyl-5-methylphenoxy)-1-phenylethylidene)hydrazineyl)-4-(p-tolyl)thiazole]
